This is an account of results in patent US20050197350A1, “Novel quinoline, tetrahydroquinazoline, and pyrimidine derivatives and methods of treatment related to the use thereof” (TAISHO PHARMACEUTICAL CO., LTD., priority 2003, published 2005).

The first assay deals with MCH receptors. Description: MCH receptor activity class (method not given).
Settings: not given
Regarding `Cc1cc(N(C)C)nc(N[C@H]2CC[C@@H](NC(=O)c3ccc(F)c(F)c3)CC2)n1` [Example 2568, N-(cis-4-{[4-(dimethylamino)-6-methylpyrimidin-2-yl]amino}cyclohexyl)-3,4-difluorobenzamide], the class amounted to 1.

The assay is the same for the next values; noted with them: MCH receptor; class by percent of control at 10^-7 M or IC50.
`CN(C)c1cc(N[C@H]2CC[C@@H](NC(=O)c3csc(-c4cccs4)n3)CC2)nc2ccccc12` [compound 146, N-(cis-4-{[4-(dimethylamino)quinolin-2-yl]amino}cyclohexyl)-2-(2-thienyl)-1,3-thiazole-4-carboxamide]: the class is listed as 1 (Class 1: The value of percent of control at 10^−7 M was less than 40% or the value of IC50 was less than 50 nM.).

As to `CCOc1ccc(NC(=S)N[C@H]2CC[C@@H](Nc3nc4c(c(N(C)C)n3)CCCC4)CC2)cc1` [compound 1939], the class is on record as 3 (Class 3 The value of percent of control at 10^−7 M was more than 60% or the value of IC50 was more than 200 nM.).

With `CCCSc1ncccc1C(=O)NC[C@H]1CC[C@@H](Nc2cc(N(C)C)c3ccccc3n2)CC1` [compound 211], the class is 3 (Class 3 The value of percent of control at 10^−7 M was more than 60% or the value of IC50 was more than 200 nM.).

With `CN(C)c1cc(N[C@H]2CC[C@@H](NC(=O)c3cc(F)cc(F)c3)CC2)nc2ccccc12` [compound 34, N-(cis-4-{[4-(dimethylamino)quinolin-2-yl]amino}cyclohexyl)-3,5-difluorobenzamide], the class is 2 (Class 2: The value of percent of control at 10^−7 M was from 40% to 60% or the value of IC′50 was from 50 nM to 200 nM.).

Staying with this assay, now noted: activity class 1-3: percent of control at 10^-7 M or IC50.
`CN(C)c1ccnc(N[C@H]2CC[C@@H](CNC(=O)OCC(Cl)(Cl)Cl)CC2)n1` [compound 1658]: the class was 3 (Class 3 The value of percent of control at 10^−7 M was more than 60% or the value of IC50 was more than 200 nM.).

Staying with this assay, now noted: activity class per percent of control at 10^-7 M or IC50.
Turning to `CN(C)c1nc(N[C@H]2CC[C@@H](NC(=O)C(CC(=O)c3ccc(C(C)(C)C)cc3)c3cn(C)c4ccccc34)CC2)nc2c1CCCC2` (relative stereo) [compound 997], the class is 3 (Class 3 The value of percent of control at 10^−7 M was more than 60% or the value of IC50 was more than 200 nM.).

`Cc1cc(C(=O)NC[C@H]2CC[C@@H](Nc3nc4c(c(N(C)C)n3)CCCC4)CC2)ccc1[N+](=O)[O-]` [compound 1076]: the class is listed as 3 (Class 3 The value of percent of control at 10^−7 M was more than 60% or the value of IC50 was more than 200 nM.).

With `COc1cccc2cc(C(=O)N[C@H]3CC[C@@H](Nc4nc5c(c(N(C)C)n4)CCCC5)CC3)oc12` [compound 1057], the class is recorded as 3 (Class 3 The value of percent of control at 10^−7 M was more than 60% or the value of IC50 was more than 200 nM.).

Still in this assay, the particulars now being: class 1-3 by percent of control at 10^-7 M or IC50.
As for `CN(C)c1nc(N[C@H]2CC[C@@H](NC(=O)COc3ccc(Cl)cc3)CC2)nc2c1CCCC2` [compound 532], the class is given as 2 (Class 2: The value of percent of control at 10^−7 M was from 40% to 60% or the value of IC′50 was from 50 nM to 200 nM.).

The assay is the same for the next values; noted with them: class by percent of control at 10^-7 M or IC50.
Consider `CN(C)c1cc(N[C@H]2CC[C@@H](NC(=O)Cc3ccccc3I)CC2)nc2ccccc12` [compound 681, N-(cis-4-{[4-(dimethylamino)quinolin-2-yl]amino}cyclohexyl)-2-(2-iodophenyl)acetamide], for which the class is listed as 2 (Class 2: The value of percent of control at 10^−7 M was from 40% to 60% or the value of IC′50 was from 50 nM to 200 nM.).

For `CN(C)c1cc(N[C@H]2CC[C@@H](NC(=O)Nc3c(Cl)c(Cl)cc(Cl)c3Cl)CC2)nc2ccccc12` [compound 2138], the class is on record as 3 (Class 3 The value of percent of control at 10^−7 M was more than 60% or the value of IC50 was more than 200 nM.).

Consider `CN(C)c1nc(N[C@H]2CC[C@@H](NC(=O)Nc3cc(Cl)cc(Cl)c3)CC2)nc2c1CCCC2` [compound 1794], for which the class is reported as 3 (Class 3 The value of percent of control at 10^−7 M was more than 60% or the value of IC50 was more than 200 nM.).

Regarding `COC(CN[C@H]1CC[C@@H](Nc2nc3c(c(N(C)C)n2)CCCC3)CC1)c1ccccc1` (some centres unmarked) [compound 1483], the class is recorded as 3 (Class 3 The value of percent of control at 10^−7 M was more than 60% or the value of IC50 was more than 200 nM.).

Turning to `COc1ccc(CNC[C@H]2CC[C@@H](Nc3nccc(N(C)C)n3)CC2)c(OC)c1` [compound 1252], the class is recorded as 2 (Class 2: The value of percent of control at 10^−7 M was from 40% to 60% or the value of IC′50 was from 50 nM to 200 nM.).

On to `CN(C)c1ccnc(N[C@H]2CC[C@@H](CNCc3ccc(OCc4ccc(Br)cc4)cc3)CC2)n1` [compound 1324], for which the class was 2 (Class 2: The value of percent of control at 10^−7 M was from 40% to 60% or the value of IC′50 was from 50 nM to 200 nM.).

`CN(C)c1ccnc(N[C@H]2CC[C@@H](NC(=O)c3ccc([N+](=O)[O-])cc3F)CC2)n1` [compound 912]: the class was 3 (Class 3 The value of percent of control at 10^−7 M was more than 60% or the value of IC50 was more than 200 nM.).

In the case of `CSc1ccc(CN[C@H]2CC[C@@H](Nc3nc4c(c(N(C)C)n3)CCCC4)CC2)cc1` [compound 1360], the class is 3 (Class 3 The value of percent of control at 10^−7 M was more than 60% or the value of IC50 was more than 200 nM.).

In the case of `CN(C)c1ccnc(N[C@H]2CC[C@@H](NC(=O)C3(c4ccc(Cl)cc4)CCCC3)CC2)n1` [compound 317], the class is 2 (Class 2: The value of percent of control at 10^−7 M was from 40% to 60% or the value of IC′50 was from 50 nM to 200 nM.).

For `CN(C)c1nc(N[C@H]2CC[C@@H](NC(=O)Nc3ccc(Cl)c(Cl)c3)CC2)nc2c1CCCC2` [compound 1818], the class is listed as 3 (Class 3 The value of percent of control at 10^−7 M was more than 60% or the value of IC50 was more than 200 nM.).

As for `COc1cc(C(=O)NC[C@H]2CC[C@@H](Nc3nccc(N(C)C)n3)CC2)ccc1[N+](=O)[O-]` [compound 941, N-[(cis-4-{[4-(dimethylamino)pyrimidin-2-yl]amino}cyclohexyl)methyl]-3-methoxy-4-nitrobenzamide], the class is reported as 1 (Class 1: The value of percent of control at 10^−7 M was less than 40% or the value of IC50 was less than 50 nM.).

As to `COc1cc(CNC[C@H]2CC[C@@H](Nc3nc4c(c(N(C)C)n3)CCCC4)CC2)cc2c1OCO2` [compound 1430], the class is given as 2 (Class 2: The value of percent of control at 10^−7 M was from 40% to 60% or the value of IC′50 was from 50 nM to 200 nM.).

For `Cc1cc(C(=O)N[C@H]2CC[C@@H](Nc3nccc(N(C)C)n3)CC2)c(C(F)(F)F)o1` [compound 288], the class is 3 (Class 3 The value of percent of control at 10^−7 M was more than 60% or the value of IC50 was more than 200 nM.).

In the case of `CN(C)c1cc(N[C@H]2CC[C@@H](NC(=O)C(CC(=O)c3ccc(Cl)cc3)SCc3ccc(Cl)cc3)CC2)nc2ccccc12` (relative stereo) [compound 741], the class is 3 (Class 3 The value of percent of control at 10^−7 M was more than 60% or the value of IC50 was more than 200 nM.).

In the case of `CN(C)c1ccnc(N[C@H]2CC[C@@H](NC(=O)c3cc(-c4ccc(Cl)cc4)oc3C(F)(F)F)CC2)n1` [compound 358], the class is 3 (Class 3 The value of percent of control at 10^−7 M was more than 60% or the value of IC50 was more than 200 nM.).

Regarding `COc1ccc(Cl)cc1CNC[C@H]1CC[C@@H](Nc2nc3c(c(N(C)C)n2)CCCC3)CC1` [compound 1506], the class is recorded as 3 (Class 3 The value of percent of control at 10^−7 M was more than 60% or the value of IC50 was more than 200 nM.).

As to `CC(NC(=O)NC1CCC(Nc2cc(N(C)C)c3ccccc3n2)CC1)c1ccccc1` (centres unmarked) [compound 2137], the class was 3 (Class 3 The value of percent of control at 10^−7 M was more than 60% or the value of IC50 was more than 200 nM.).

In the case of `CN(C)c1ccnc(N[C@H]2CC[C@@H](CNCc3cc(Cl)cc(Cl)c3)CC2)n1` [compound 1308], the class is 3 (Class 3 The value of percent of control at 10^−7 M was more than 60% or the value of IC50 was more than 200 nM.).

For `CN(C)c1ccnc(N[C@H]2CC[C@@H](NC(=O)CCc3ccccc3)CC2)n1` [compound 345], the class was 3 (Class 3 The value of percent of control at 10^−7 M was more than 60% or the value of IC50 was more than 200 nM.).

Consider `CC(C)c1ccccc1NC(=S)N[C@H]1CC[C@@H](Nc2cc(N(C)C)c3ccccc3n2)CC1` [compound 2281], for which the class is 3 (Class 3 The value of percent of control at 10^−7 M was more than 60% or the value of IC50 was more than 200 nM.).

In the case of `Cc1ccc(CNC[C@H]2CC[C@@H](Nc3cc(N(C)C)c4ccccc4n3)CC2)cc1I` [compound 1476], the class is 3 (Class 3 The value of percent of control at 10^−7 M was more than 60% or the value of IC50 was more than 200 nM.).

The assay is the same for the next values; noted with them: class by percent of control at 10^−7 M or IC50.
As for `Cc1cc(N(C)C)nc(N[C@H]2CC[C@@H](C(=O)NCc3ccc(Br)cc3F)CC2)n1` [compound 2821, cis-N-(4-bromo-2-fluorobenzyl)-4-{[4-(dimethylamino)-6-methylpyrimidin-2-yl]amino}cyclohexanecarboxamide], the class is recorded as 1 (Class 1: The value of percent of control at 10^−7 M was less than 40% or the value of IC50 was less than 50 nM.).

Take `Cc1cc(N(C)C)nc(NC[C@H]2CC[C@@H](NC(=O)c3ccc(C#N)cc3)CC2)n1` [compound 2743]: the class is on record as 3 (Class 3 The value of percent of control at 10^−7 M was more than 60% or the value of IC50 was more than 200 nM.).

As for `CCc1ccc(C(=O)N[C@H]2CC[C@@H](Nc3nc(C)cc(N(C)C)n3)CC2)cc1` [compound 2974, N-(cis-4-{[4-(dimethylamino)-6-methylpyrimidin-2-yl]amino}cyclohexyl)-4-ethylbenzamide], the class was 2 (Class 2: The value of percent of control at 10^−7 M was from 40% to 60% or the value of IC′50 was from 50 nM to 200 nM.).

Regarding `Cc1cc(N(C)C)nc(NC[C@H]2CC[C@@H](NC(=O)c3cccc(C(F)(F)F)c3)CC2)n1` [compound 2739], the class is 3 (Class 3 The value of percent of control at 10^−7 M was more than 60% or the value of IC50 was more than 200 nM.).
